Results taken from PubChem BioAssay AID308 (DTP/NCI, 2004).
Several values for one entry are separate records, joined by “and”; a condition that tells them apart may be missing. Equal values may be shown once. Inconclusive results and toxic doses are left out.

System: BDF1 mice, L1210 6-MP/6-TG resistant leukemia ip, survival T/C
Assay: NCI In Vivo Anticancer Drug Screen. Data for tumor model L1210 Leukemia resistant to 6-MP and 6-Thioguanine; NSC 755, NSC 752 (intraperitoneal) in B6D2F1 (BDF1) mice
Details: endpoint: mean survival time, higher = longer survival
Method: The antitumor activity of compounds was measured in mice bearing transplantable tumors. Survival or tumor size were measured and the results are expressed as the measurement made in the treated group (T) divided by the measurement made in the vehicle treated control group (C). The tumor model used in this assay is L1210 Leukemia resistant to 6-MP and 6-Thioguanine; NSC 755, NSC 752 (intraperitoneal) in B6D2F1 (BDF1) mice

[1] = dose: 125.0 mg/kg/injection, schedule: Q01DX Z (ip), vehicle: carboxymethylcellulose (CMC)

CN(Cc1cnc2nc(N)nc(N)c2n1)c1ccc(C(=O)N[C@@H](CCC(=O)O)C(=O)O)cc1
T/C (dose: 0.6 mg/kg/injection, schedule: Q02DX010 (ip), vehicle: carboxymethylcellulose (CMC)): 172 % of control
T/C (dose: 0.9 mg/kg/injection, schedule: Q02DX010 (ip), vehicle: carboxymethylcellulose (CMC)): 163 % of control
T/C (dose: 1.3 mg/kg/injection, schedule: Q02DX010 (ip), vehicle: carboxymethylcellulose (CMC)): 220 % of control
T/C (dose: 2.0 mg/kg/injection, schedule: Q02DX010 (ip), vehicle: carboxymethylcellulose (CMC)): 261 % of control
T/C (dose: 3.0 mg/kg/injection, schedule: Q02DX010 (ip), vehicle: carboxymethylcellulose (CMC)): 282 % of control
T/C (dose: 4.5 mg/kg/injection, schedule: Q02DX010 (ip), vehicle: carboxymethylcellulose (CMC)): 294 % of control
T/C (dose: 6.75 mg/kg/injection, schedule: Q02DX010 (ip), vehicle: carboxymethylcellulose (CMC)): 290 % of control

O=C(Nc1ccc(C2=NCCCN2)cc1)c1ccc(NC(=O)c2ccc(C3=NCCCN3)cc2)cc1
T/C (dose: 0.75 mg/kg/injection, schedule: Q01DX Z (ip), vehicle: carboxymethylcellulose (CMC)): 113 % of control
T/C (dose: 1.5 mg/kg/injection, schedule: Q01DX Z (ip), vehicle: carboxymethylcellulose (CMC)): 116 % of control
T/C (dose: 3.0 mg/kg/injection, schedule: Q01DX Z (ip), vehicle: carboxymethylcellulose (CMC)): 272 % of control
T/C (dose: 4.0 mg/kg/injection, schedule: Q01DX Z (ip), vehicle: carboxymethylcellulose (CMC)): 235 % of control
T/C (dose: 6.0 mg/kg/injection, schedule: Q01DX Z (ip), vehicle: carboxymethylcellulose (CMC)): 185 % of control
T/C (dose: 16.0 mg/kg/injection, schedule: Q01DX Z (ip), vehicle: carboxymethylcellulose (CMC)): 106 % of control

C(=C\c1ccccc1)/CSc1ncnc2nc[nH]c12
T/C (dose: 62.0 mg/kg/injection, schedule: Q01DX015 (ip), vehicle: carboxymethylcellulose (CMC)): 98 % of control
T/C (dose: 125.0 mg/kg/injection, schedule: Q01DX015 (ip), vehicle: carboxymethylcellulose (CMC)): 96 % of control
T/C (dose: 250.0 mg/kg/injection, schedule: Q01DX015 (ip), vehicle: carboxymethylcellulose (CMC)): 91 % of control
T/C (dose: 500.0 mg/kg/injection, schedule: Q01DX015 (ip), vehicle: carboxymethylcellulose (CMC)): 90 % of control
T/C (dose: 1000.0 mg/kg/injection, schedule: Q01DX015 (ip), vehicle: carboxymethylcellulose (CMC)): 90 % of control

O=C(Nc1ccc(C2=NCCN2)cc1)c1ccc(C(=O)Nc2ccc(C3=NCCN3)cc2)cc1
T/C (dose: 18.75 mg/kg/injection, schedule: Q01DX Z (ip), vehicle: carboxymethylcellulose (CMC)): 154 % of control
T/C (dose: 25.0 mg/kg/injection, schedule: Q01DX Z (ip), vehicle: carboxymethylcellulose (CMC)): 151 % of control
T/C (dose: 27.0 mg/kg/injection, schedule: Q02DX010 (ip), vehicle: carboxymethylcellulose (CMC)): 312 % of control
T/C (dose: 40.0 mg/kg/injection, schedule: Q02DX010 (ip), vehicle: carboxymethylcellulose (CMC)): 317 % of control
T/C (dose: 50.0 mg/kg/injection, schedule: Q01DX Z (ip), vehicle: carboxymethylcellulose (CMC)): 219 % of control
T/C (dose: 60.0 mg/kg/injection, schedule: Q02DX010 (ip), vehicle: carboxymethylcellulose (CMC)): 296 % of control
T/C (dose: 75.0 mg/kg/injection, schedule: Q01DX Z (ip), vehicle: carboxymethylcellulose (CMC)): 188 % of control and 232 % of control
T/C (dose: 90.0 mg/kg/injection, schedule: Q02DX010 (ip), vehicle: carboxymethylcellulose (CMC)): 280 % of control
T/C (dose: 100.0 mg/kg/injection, schedule: Q01DX Z (ip), vehicle: carboxymethylcellulose (CMC)): 288 % of control and 295 % of control
T/C (dose: 135.0 mg/kg/injection, schedule: Q02DX010 (ip), vehicle: carboxymethylcellulose (CMC)): 312 % of control
T/C (dose: 150.0 mg/kg/injection, schedule: Q01DX Z (ip), vehicle: carboxymethylcellulose (CMC)): 300 % of control
T/C (dose: 200.0 mg/kg/injection, schedule: Q01DX Z (ip), vehicle: carboxymethylcellulose (CMC)): 186 % of control

Clc1ncnc2c1ncn2C1CCCCO1 (configuration not stated)
T/C (dose: 62.0 mg/kg/injection, schedule: Q01DX Z (ip), vehicle: other): 96 % of control
T/C (dose: 125.0 mg/kg/injection, schedule: Q01DX Z (ip), vehicle: other): 91 % of control

O=C(Nc1ccc(C2=NCCN2)cc1)c1cccc(C(=O)Nc2ccc(C3=NCCN3)cc2)c1
T/C (dose: 2.5 mg/kg/injection, schedule: Q01DX Z (ip), vehicle: water): 110 % of control
T/C (dose: 10.0 mg/kg/injection, schedule: Q01DX Z (ip), vehicle: water): 300 % of control
T/C (dose: 20.0 mg/kg/injection, schedule: Q01DX Z (ip), vehicle: water): 187 % of control

CC(=O)OCC1OC(n2cnc3c(=S)nc(N)[nH]c32)C(OC(C)=O)C1OC(C)=O (configuration not stated)
T/C (dose: 1.0 mg/kg/injection, schedule: Q01DX Z (ip), vehicle: other): 89 % of control
T/C (dose: 2.0 mg/kg/injection, schedule: Q01DX Z (ip), vehicle: other): 89 % of control
T/C (dose: 4.0 mg/kg/injection, schedule: Q01DX Z (ip), vehicle: other): 101 % of control
T/C (dose: 6.0 mg/kg/injection, schedule: Q01DX Z (ip), vehicle: other): 92 % of control
T/C (dose: 12.5 mg/kg/injection, schedule: Q01DX Z (ip), vehicle: other): 98 % of control
T/C (dose: 25.0 mg/kg/injection, schedule: Q01DX Z (ip), vehicle: other): 93 % of control

CCSc1nc(Cl)cc(Sc2nc(N)nc3nc[nH]c23)n1
T/C (dose: 8.0 mg/kg/injection, schedule: Q01DX Z (ip), vehicle: other): 107 % of control
T/C (dose: 16.0 mg/kg/injection, schedule: Q01DX Z (ip), vehicle: other): 90 % of control

CSc1ncnc2nc[nH]c12
T/C (dose: 30.0 mg/kg/injection, schedule: Q01DX015 (ip), vehicle: carboxymethylcellulose (CMC)): 89 % of control
T/C (dose: 31.0 mg/kg/injection, schedule: Q01DX Z (ip), vehicle: carboxymethylcellulose (CMC)): 97 % of control
T/C (dose: 45.0 mg/kg/injection, schedule: Q01DX015 (ip), vehicle: carboxymethylcellulose (CMC)): 103 % of control
T/C (dose: 60.0 mg/kg/injection, schedule: Q01DX015 (ip), vehicle: carboxymethylcellulose (CMC)): 88 % of control
T/C (dose: 62.5 mg/kg/injection, schedule: Q01DX Z (ip), vehicle: carboxymethylcellulose (CMC)): 92 % of control
T/C (dose: 75.0 mg/kg/injection, schedule: Q01DX015 (ip), vehicle: carboxymethylcellulose (CMC)): 89 % of control
T/C (dose: 90.0 mg/kg/injection, schedule: Q01DX015 (ip), vehicle: carboxymethylcellulose (CMC)): 86 % of control
T/C (dose: 120.0 mg/kg/injection, schedule: Q01DX001 (ip), vehicle: carboxymethylcellulose (CMC)): 95 % of control and 104 % of control
T/C [1]: 88 % of control
T/C (dose: 180.0 mg/kg/injection, schedule: Q01DX001 (ip), vehicle: carboxymethylcellulose (CMC)): 92 % of control
T/C (dose: 270.0 mg/kg/injection, schedule: Q01DX001 (ip), vehicle: carboxymethylcellulose (CMC)): 94 % of control

CCCSc1ncnc2nc[nH]c12
T/C (dose: 43.5 mg/kg/injection, schedule: Q01DX Z (ip), vehicle: other): 98 % of control
T/C (dose: 87.0 mg/kg/injection, schedule: Q01DX Z (ip), vehicle: other): 105 % of control
T/C (dose: 175.0 mg/kg/injection, schedule: Q01DX Z (ip), vehicle: other): 91 % of control

c1nc(Sc2ncnc3nc[nH]c23)c2[nH]cnc2n1
T/C (dose: 37.0 mg/kg/injection, schedule: Q01DX009 (ip), vehicle: other): 100 % of control
T/C (dose: 75.0 mg/kg/injection, schedule: Q01DX009 (ip), vehicle: other): 107 % of control
T/C (dose: 150.0 mg/kg/injection, schedule: Q01DX009 (ip), vehicle: other): 95 % of control
T/C (dose: 300.0 mg/kg/injection, schedule: Q01DX009 (ip), vehicle: other): 91 % of control

C[C@@H]1C[C@@H]([C@H](O)CC2CC(=O)NC(=O)C2)C(=O)[C@@H](C)C1
T/C (dose: 0.93 mg/kg/injection, schedule: Q01DX Z (ip), vehicle: carboxymethylcellulose (CMC)): 101 % of control
T/C (dose: 1.87 mg/kg/injection, schedule: Q01DX Z (ip), vehicle: carboxymethylcellulose (CMC)): 101 % of control
T/C (dose: 3.75 mg/kg/injection, schedule: Q01DX Z (ip), vehicle: carboxymethylcellulose (CMC)): 100 % of control
T/C (dose: 7.5 mg/kg/injection, schedule: Q01DX Z (ip), vehicle: carboxymethylcellulose (CMC)): 101 % of control
T/C (dose: 7.5 mg/kg/injection, schedule: Q01DX Z (ip), vehicle: saline): 116 % of control
T/C (dose: 15.0 mg/kg/injection, schedule: Q01DX Z (ip), vehicle: saline): 114 % of control
T/C (dose: 30.0 mg/kg/injection, schedule: Q01DX Z (ip), vehicle: saline): 112 % of control
T/C (dose: 60.0 mg/kg/injection, schedule: Q01DX Z (ip), vehicle: saline): 92 % of control

CS(=O)(=O)OCC(O)C(O)COS(C)(=O)=O (configuration not stated)
T/C (dose: 62.0 mg/kg/injection, schedule: Q01DX Z (ip), vehicle: carboxymethylcellulose (CMC)): 103 % of control
T/C [1]: 101 % of control
T/C (dose: 250.0 mg/kg/injection, schedule: Q01DX Z (ip), vehicle: carboxymethylcellulose (CMC)): 122 % of control
